The values that follow come from patent US7034056B2, “Aryl and biaryl compounds having MCH modulatory activity” (Pharmacopeia Drug Discovery, inc., priority 2001, dated 2006).

Molecules are shown by their SMILES.

The test has as its target T1, hMCHR (MCH receptor) (Homo sapiens, UniProt Q99705).
T1 construct: (or internally produced); host or cells: CHO (Chinese hamster ovary) cells, membrane preparation
In words: MCH Assay PCOP Protocol ([125I]-MCH SPA binding to hMCHR-CHO membranes).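 Also: A 0.4–50 nM B 51–500 nM C 501–2500 nM.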 The conditions noted are these: [125I]-MCH binding to hMCHR-CHO membranes; class symbols for ranges of Ki; read-out: Activity (Ki range). In outline:
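SPA binding with 10 μg hMCHR-CHO membranes and WGA-SPA beads in 25 mM HEPES pH 7.4, 10 mM NaCl, 10 mM MgCl2, 5 mM MnCl2, 0.1% BSA.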

T1 sequence (Q99705 whole entry): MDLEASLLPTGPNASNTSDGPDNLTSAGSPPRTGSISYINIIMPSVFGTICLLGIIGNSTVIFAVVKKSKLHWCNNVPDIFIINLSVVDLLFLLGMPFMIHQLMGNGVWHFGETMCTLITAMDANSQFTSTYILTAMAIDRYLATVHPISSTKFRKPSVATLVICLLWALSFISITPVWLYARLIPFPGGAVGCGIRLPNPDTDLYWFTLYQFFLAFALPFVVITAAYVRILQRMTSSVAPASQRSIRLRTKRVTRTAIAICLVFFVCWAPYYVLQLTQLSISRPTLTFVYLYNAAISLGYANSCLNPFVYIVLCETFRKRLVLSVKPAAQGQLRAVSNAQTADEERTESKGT

For `O=C(NCC(CCNC1CCC1)c1ccc(Cl)c(Cl)c1)Nc1ccc(Cl)c(Cl)c1` (stereo not shown) [Example 282], the Ki lay within 51 to 500 nM.
As for `O=C(NCC(CCNC1CCC1)c1ccc(Cl)c(Cl)c1)Nc1cccc(C(F)(F)F)c1` (stereo not shown) [Example 283], the Ki fell in the range of 51 to 500 nM.
For `Cn1cnc(CCNCCC(CNC(=O)Nc2ccc(Cl)c(Cl)c2)c2ccc(Cl)c(Cl)c2)c1` (stereo not shown) [Example 284], the Ki lay in the range of 51 to 500 nM.
Consider `O=C(NCC(CCN1CCC(N2CCCCC2)CC1)c1ccc(Cl)c(Cl)c1)Nc1ccc([N+](=O)[O-])c(Cl)c1` (stereo not shown) [Example 286], for which the Ki lay in the range of 51 to 500 nM.
For `O=C(NCC(CCN1CCCC1)c1ccc(Cl)c(Cl)c1)Nc1ccc(Cl)c(Cl)c1` (stereo not shown) [Example 287], the Ki lay in the range of 51 to 500 nM.
Then `CCCN(CC)CCC(CNC(=O)Nc1cccc(C(F)(F)F)c1)c1ccc(Cl)c(Cl)c1` (stereo not shown) [Example 288], with 51 to 500 nM; and `CCCN(CC)CCC(CNC(=O)Nc1ccc(Cl)c(Cl)c1)c1ccc(Cl)c(Cl)c1` (stereo not shown) [Example 289], with 51 to 500 nM; and `O=C(NCC(CCNC1CCCC1)c1ccc(Cl)c(Cl)c1)Nc1cccc(C(F)(F)F)c1` (stereo not shown) [Example 290], with 51 to 500 nM.
As to `CN(C)C1CCN(CCC(CNC(=O)Nc2ccc(Cl)c(Cl)c2)c2ccc(Cl)c(Cl)c2)C1` (stereo not shown) [Example 291], the Ki was in the range of 51 to 500 nM.
In the case of `CN(C)C1CCN(CCC(CNC(=O)Nc2cc(Cl)cc(Cl)c2)c2ccc(Cl)c(Cl)c2)C1` (stereo not shown) [Example 292], the Ki fell in the range of 51 to 500 nM.
In the case of `O=C(NCC(CCNCCc1ccc(O)cc1)c1ccc(Cl)c(Cl)c1)Nc1cccc(C(F)(F)F)c1` (stereo not shown) [Example 293], the Ki was in the range of 51 to 500 nM.
For `O=C(NCC(CCNCCc1c[nH]c2ccccc12)c1ccc(Cl)c(Cl)c1)Nc1cc(Cl)cc(Cl)c1` (stereo not shown) [Example 294], the Ki was 501 to 2500 nM.
`O=C(NCC(CCNCc1ccc2c(c1)OCO2)c1ccc(Cl)c(Cl)c1)Nc1cc(Cl)cc(Cl)c1` (stereo not shown) [Example 295]: the Ki lay in the range of 501 to 2500 nM.
On to `O=C(NCC(CCNCc1ccc2c(c1)OCO2)c1ccc(Cl)c(Cl)c1)Nc1ccc(Cl)c(Cl)c1` (stereo not shown) [Example 296], for which the inhibition constant Ki was in the range of 501 to 2500 nM.
`Cn1cnc(CCNCCC(CNC(=O)Nc2cc(Cl)cc(Cl)c2)c2ccc(Cl)c(Cl)c2)c1` (stereo not shown) [Example 297]: the Ki is 501 to 2500 nM.
For `CN1CCCC1CCNCCC(CNC(=O)Nc1ccc(Cl)c(Cl)c1)c1ccc(Cl)c(Cl)c1` (stereo not shown) [Example 298] the value was 501 to 2500 nM.
For `O=C(NCC(CCN1CCCC1)c1ccc(Cl)c(Cl)c1)Nc1cccc(C(F)(F)F)c1` (stereo not shown) [Example 299] the value was 501 to 2500 nM; for `CN1CCCC1CCNCCC(CNC(=O)Nc1cccc(C(F)(F)F)c1)c1ccc(Cl)c(Cl)c1` (stereo not shown) [Example 300], 501 to 2500 nM; for `CN1CCCC1CCNCCC(CNC(=O)Nc1cc(Cl)cc(Cl)c1)c1ccc(Cl)c(Cl)c1` (stereo not shown) [Example 301], 501 to 2500 nM.
Then `O=C(NCC(CCNCc1ccc2c(c1)OCO2)c1ccc(Cl)c(Cl)c1)Nc1cccc(C(F)(F)F)c1` (stereo not shown) [Example 302], with 501 to 2500 nM.
`Cn1cnc(CCNCCC(CNC(=O)Nc2cccc(C(F)(F)F)c2)c2ccc(Cl)c(Cl)c2)c1` (stereo not shown) [Example 303]: the Ki lay in the range of 501 to 2500 nM.
Regarding `CN(C)CCCNCCC(CNC(=O)Nc1cc(Cl)cc(Cl)c1)c1ccc(Cl)c(Cl)c1` (stereo not shown) [Example 304], the Ki is 501 to 2500 nM.
On to `CN(C)CCCNCCC(CNC(=O)Nc1ccc(Cl)c(Cl)c1)c1ccc(Cl)c(Cl)c1` (stereo not shown) [Example 305], for which the Ki lay within 501 to 2500 nM.
With `CN(C)C1CCN(CCC(CNC(=O)Nc2cccc(C(F)(F)F)c2)c2ccc(Cl)c(Cl)c2)C1` (stereo not shown) [Example 306], the Ki was in the range of 501 to 2500 nM.
As to `O=C(NCC(CCN1CCNCC1)c1ccc(Cl)c(Cl)c1)Nc1ccc(Cl)c(Cl)c1` (stereo not shown) [Example 307], the Ki was in the range of 501 to 2500 nM.
As for `O=C(NCC(CCN1CCNCC1)c1ccc(Cl)c(Cl)c1)Nc1cc(Cl)cc(Cl)c1` (stereo not shown) [Example 308], the Ki lay in the range of 501 to 2500 nM.
In the case of `O=C(NCC(CCN1CCNCC1)c1ccc(Cl)c(Cl)c1)Nc1cccc(C(F)(F)F)c1` (stereo not shown) [Example 309], the Ki was 501 to 2500 nM.
Take `CN(C)CCCNCCC(CNC(=O)Nc1cccc(C(F)(F)F)c1)c1ccc(Cl)c(Cl)c1` (stereo not shown) [Example 310]: the Ki was 501 to 2500 nM.
Turning to `O=C(NCC(CCN1CCC(N2CCCCC2)CC1)c1ccc(Cl)c(Cl)c1)Nc1cccc(Br)c1` (stereo not shown) [Example 312], the Ki lay within 51 to 500 nM.
For the compound `O=C(NCC(CCNC1CCC1)c1ccc(Cl)c(Cl)c1)Nc1cc(C(F)(F)F)cc(C(F)(F)F)c1` (stereo not shown) [Example 314], the Ki lay in the range of 51 to 500 nM.
Turning to `O=C(NCC(CCN1CCC(N2CCCCC2)CC1)c1ccc(Cl)c(Cl)c1)Nc1ccc([N+](=O)O)cc1` (stereo not shown) [Example 315], the Ki was 51 to 500 nM.
Then `CCNC(=O)NC1CCN(CCC(CNC(=O)Nc2cc(Cl)cc(Cl)c2)c2ccc(Cl)c(Cl)c2)C1` (stereo not shown) [Example 316], with 501 to 2500 nM; and `O=C(NCC(CCN1CCC(N2CCCCC2)CC1)c1ccc(Cl)c(Cl)c1)Nc1cccc([N+](=O)[O-])c1` (stereo not shown) [Example 317], with 501 to 2500 nM; and `O=C(NCC(CCNC1CCNC1)c1ccc(Cl)c(Cl)c1)Nc1cc(C(F)(F)F)cc(C(F)(F)F)c1` (stereo not shown) [Example 318], with 501 to 2500 nM.
Take `O=C(NCC(CCNCc1ccc2c(c1)OCO2)c1ccc(Cl)c(Cl)c1)Nc1cc(C(F)(F)F)cc(C(F)(F)F)c1` (stereo not shown) [Example 319]: the inhibition constant Ki fell in the range of 501 to 2500 nM.
On to `O=C(NCC(CCNCCc1c[nH]c2ccccc12)c1ccc(Cl)c(Cl)c1)Nc1cc(C(F)(F)F)cc(C(F)(F)F)c1` (stereo not shown) [Example 320], for which the Ki lay within 501 to 2500 nM.
As to `CCNC(=O)NC1CCN(CCC(CNC(=O)Nc2cc(Cl)cc(Cl)c2)c2ccc(Cl)cc2)C1` (stereo not shown) [Example 321], the Ki is 501 to 2500 nM.
As to `NC1CCN(CCC(CNC(=O)Nc2cc(Cl)cc(Cl)c2)c2ccc(Cl)c(Cl)c2)CC1` (stereo not shown) [Example 322], the Ki lay in the range of 501 to 2500 nM.
Then `CCNC(=O)NC1CCN(CCC(CNC(=O)Nc2cc(Cl)cc(Cl)c2)c2ccc(Cl)c(Cl)c2)CC1` (stereo not shown) [Example 323], with 501 to 2500 nM.
As for `Cc1ccc(C(CCN2CCC(N)CC2)CNC(=O)Nc2cc(Cl)cc(Cl)c2)cc1` (stereo not shown) [Example 324], the Ki fell in the range of 501 to 2500 nM.
Consider `O=C(NCC(CCN1CCC(N2CCCCC2)CC1)c1ccc(Cl)c(Cl)c1)Nc1ccc(Cl)cc1` (stereo not shown) [Example 325], for which the Ki lay in the range of 501 to 2500 nM.
Consider `O=C(NCC(CCN1CCC(N2CCCCC2)CC1)c1ccc(Cl)c(Cl)c1)Nc1ccc(Br)cc1` (stereo not shown) [Example 326], for which the Ki was 501 to 2500 nM.
As to `CCNC(=O)NC1CCN(CCC(CNC(=O)Nc2cc(Cl)cc(Cl)c2)c2ccc(C)cc2)CC1` (stereo not shown) [Example 327], the Ki lay in the range of 501 to 2500 nM.
Then `O=C(NCC(CCNC1CCCC1)c1ccc(Cl)c(Cl)c1)Nc1cc(C(F)(F)F)cc(C(F)(F)F)c1` (stereo not shown) [Example 328], with 0.4 to 50 nM; and `O=C(NCC(CCN1CCCC1)c1ccc(Cl)cc1)Nc1cc(C(F)(F)F)cc(C(F)(F)F)c1` (stereo not shown) [Example 329], with 51 to 500 nM; and `O=C(NCC(CCNCCc1c[nH]c2ccccc12)c1ccc(Cl)cc1)Nc1cc(C(F)(F)F)cc(C(F)(F)F)c1` (stereo not shown) [Example 330], with 51 to 500 nM.
Take `COc1ccc(C(CCNCCc2c[nH]c3ccccc23)CNC(=O)Nc2cc(C(F)(F)F)cc(C(F)(F)F)c2)cc1` (stereo not shown) [Example 331]: the Ki is 51 to 500 nM.
On to `CN(C)CCNCCC(CNC(=O)Nc1cc(C(F)(F)F)cc(C(F)(F)F)c1)c1ccc(Cl)c(Cl)c1` (stereo not shown) [Example 332], for which the Ki fell in the range of 51 to 500 nM.
As to `O=C(NCC(CCNCCc1c[nH]c2ccccc12)c1cccc(Cl)c1)Nc1cc(C(F)(F)F)cc(C(F)(F)F)c1` (stereo not shown) [Example 333], the Ki fell in the range of 51 to 500 nM.
For `O=C(NCC(CCN1CCCC1)c1cccc(Cl)c1)Nc1cc(C(F)(F)F)cc(C(F)(F)F)c1` (stereo not shown) [Example 334], the Ki is 501 to 2500 nM.
In the case of `COc1ccc(C(CCN2CCCC2)CNC(=O)Nc2cc(C(F)(F)F)cc(C(F)(F)F)c2)cc1` (stereo not shown) [Example 335], the inhibitory constant (Ki) was 501 to 2500 nM.
For `Cc1cccc(C(CCNCCc2c[nH]c3ccccc23)CNC(=O)Nc2cc(C(F)(F)F)cc(C(F)(F)F)c2)c1` (stereo not shown) [Example 336] the value was 501 to 2500 nM.
As to `CN(C)CCCNCCC(CNC(=O)Nc1cc(C(F)(F)F)cc(C(F)(F)F)c1)c1ccc(Cl)cc1` (stereo not shown) [Example 337], the Ki is 501 to 2500 nM.
For the compound `Cc1cccc(C(CCN2CCCC2)CNC(=O)Nc2cc(C(F)(F)F)cc(C(F)(F)F)c2)c1` (stereo not shown) [Example 338], the Ki was 501 to 2500 nM.
For `O=S(=O)(NCC(CCNCCc1c[nH]c2ccccc12)c1cccc(F)c1)c1ccc(Cl)c(Cl)c1` (stereo not shown) [Example 339], the Ki was in the range of 501 to 2500 nM.
For `O=S(=O)(NCC(CCNCCc1c[nH]c2ccccc12)c1cccc(Cl)c1)c1ccc(Cl)c(Cl)c1` (stereo not shown) [Example 340], the Ki is 501 to 2500 nM.
For `O=C(NCC(CCN1CCCC1)c1cccc(F)c1)Nc1cc(C(F)(F)F)cc(C(F)(F)F)c1` (stereo not shown) [Example 341], the Ki lay within 501 to 2500 nM.
For the compound `O=S(=O)(NCC(CCNCCc1c[nH]c2ccccc12)c1ccc(Cl)cc1)c1ccc(Cl)c(Cl)c1` (stereo not shown) [Example 342], the Ki is 501 to 2500 nM.
On to `O=C(NCC(CCNCCc1c[nH]c2ccccc12)c1cccc(F)c1)Nc1cc(C(F)(F)F)cc(C(F)(F)F)c1` (stereo not shown) [Example 343], for which the inhibition constant Ki is 501 to 2500 nM.
Then `CN(C)CCCNCCC(CNC(=O)Nc1cc(C(F)(F)F)cc(C(F)(F)F)c1)c1cccc(Cl)c1` (stereo not shown) [Example 344], with 501 to 2500 nM; and `COc1ccc(C(CCNCCCN(C)C)CNC(=O)Nc2cc(C(F)(F)F)cc(C(F)(F)F)c2)cc1` (stereo not shown) [Example 345], with 501 to 2500 nM.
For `CN(C)CCCNCCC(CNC(=O)Nc1cc(C(F)(F)F)cc(C(F)(F)F)c1)c1cccc(F)c1` (stereo not shown) [Example 346] the value was 501 to 2500 nM.
With `Cc1cccc(C(CCNCCCN(C)C)CNC(=O)Nc2cc(C(F)(F)F)cc(C(F)(F)F)c2)c1` (stereo not shown) [Example 347], the Ki was 501 to 2500 nM.
Turning to `O=S(=O)(NCC(CCN1CCC(c2ccccc2)CC1)c1ccc(Cl)c(Cl)c1)c1ccc(Cl)c(Cl)c1` (stereo not shown) [Example 348], the Ki was 501 to 2500 nM.
`O=S(=O)(NCC(CCN1CCCC1)c1cccc(Cl)c1)c1ccc(Cl)c(Cl)c1` (stereo not shown) [Example 349]: the Ki lay in the range of 501 to 2500 nM.
As for `Cc1ccc(C(CCN2CCCCC2)CNC(=O)Nc2cc(Cl)cc(Cl)c2)cc1` (stereo not shown) [Example 350], the Ki lay in the range of 51 to 500 nM.
Consider `Cc1ccc(C(CCN2CCC(N3CCCCC3)CC2)CNC(=O)Nc2cc(Cl)cc(Cl)c2)cc1` (stereo not shown) [Example 351], for which the Ki lay in the range of 51 to 500 nM.
